According to US20250041306A1, “TARGETED PROTEASE DEGRADATION (TED) PLATFORM” (EUBULUS BIOTHERAPEUTICS INC., priority 2021, published 2025):
Where two headings read alike, the source gives them in different places. Numbered stars: 1 amine (or outer) side, 2 acyl side, 3 side chain; on linkers, the order of the positions; unused ones are H or OH. Bridge positions count the residues as written; N and C are the ends. Square brackets hold non-standard residues; d marks the D form. Peptide text beside a SMILES is read from it. I, II: the chains in the order shown. * marks the point of attachment. X1 = NC(=O)c1ccccc1Nc1nc(Nc2ccc(N3CCN(C(=O)NC4CCC(N(CCC#Cc5ccc6c(c5)CN(C5CCC(=O)NC5=O)C6=O)C(=O)OCCS*)CC4)CC3)cc2)ncc1Cl; Succinimide(1-C2H4CO,3-yl) = O=C1CC([*:1])C(=O)N1CCC(=O)[*:2]; Thr(ol) = C[C@@H](O)[C@H](N)CO

How the values were obtained:
Format in all cases: cell-based
[1] = test system: Human Colon Cancer cells Colo205; assay: Cell proliferation experiment (Alarm blue), Colo205
Experimental: (§1) The cells were cultured in conventional ways, and the cells should be passed for at least 2 generations before plating. Cells at the logarithmic growth phase were collected, prepared into single cell suspensions and counted. The concentration of cells was adjusted to desired concentration, and cells were inoculated into a 96-well cell culture plate at 100 μl per well. 100 μL of complete medium of the test compound were added to each well, 2 replicate wells for each concentration were set up, and diluted with a 5-fold gradient, and continued to culture for 72 h. All cells were subjected to EC50 test for corresponding samples.
(§2) The fluorescence intensity of each well was detected using the Alarm blue method, and IC50 was calculated.
(§3) IC50 was calculated according to the following formula:
(§4) [formula] • wherein Min, Max and Slope represent the minimum, maximum and slope respectively.

[2] = test system: Human Small Cell Lung Cancer H69; assay: Cell proliferation experiment (Alarm blue), H69
Experimental: as §1, §2, §3, §4

Human Colon Cancer HT-29 = assay: Cell proliferation experiment (Alarm blue), HT-29
Experimental: as §1, §2, §3, §4

[3] = test system: Human Small Cell Lung Cancer NCI-H82; assay: Cell proliferation experiment (Alarm blue), H82
Experimental: as §1, §2, §3, §4

[4] = test system: human gastric carcinoma cells N87; assay: Cell proliferation experiment (Alarm blue), N87
Experimental: as §1, §2, §3, §4

[5] = Colo205 cells, 72 h culture, read-out: Anti cell proliferative activity EC50, Colo205
[6] = H69 cells, 72 h culture, read-out: Anti cell proliferative activity EC50, H69
[7] = HT-29 cells, 72 h culture, read-out: Anti cell proliferative activity EC50, HT-29
[8] = H82 cells, 72 h culture, read-out: Anti cell proliferative activity EC50, H82
[9] = N87 cells, 72 h culture, read-out: Anti cell proliferative activity EC50, N87
[10] = Homo sapiens, COLO 205, Colo205 cells, 72 h culture, read-out: Anti cell proliferative activity EC50, Colo205
[11] = Homo sapiens, NCI-H69, H69 cells, 72 h culture, read-out: Anti cell proliferative activity EC50, H69
[12] = Homo sapiens, HT-29 cells, 72 h culture, read-out: Anti cell proliferative activity EC50, HT-29
[13] = Homo sapiens, NCI-H82, H82 cells, 72 h culture, read-out: Anti cell proliferative activity EC50, H82
[14] = Homo sapiens, N87 cells, 72 h culture, read-out: Anti cell proliferative activity EC50, N87

Structure (SMILES)	EC50 [1, 5] [nM]	EC50 [2, 6] [nM]	EC50 (Human Colon Cancer HT-29; [7]) [nM]	EC50 [3, 8] [nM]	EC50 [4, 9] [nM]	also measured
C[C@H](NC(=O)[C@H](C)NC(=O)[C@H](CS(=O)(=O)O)NC(=O)CCN1C(=O)CC(SC[C@H](N)C(=O)N[C@H](Cc2ccccc2)C(=O)N[C@H]2CSSC[C@@H](C(=O)N[C@H](CO)[C@@H](C)O)NC(=O)[C@H]([C@@H](C)O)NC(=O)[C@H](CCCCN)NC(=O)[C@@H](Cc3c[nH]c4ccccc34)NC(=O)[C@H](Cc3ccccc3)CC2=O)C1=O)C(=O)N[C@@H](CC(N)=O)C(=O)Nc1ccc(COC(=O)N(CCC#Cc2ccc3c(c2)CN(C2CCC(=O)NC2=O)C3=O)C2CCC(NC(=O)N3CCN(c4ccc(Nc5ncc(Cl)c(Nc6ccccc6C(N)=O)n5)cc4)CC3)CC2)cc1 (some centres unmarked) [UB-181345]	274	> 1000	> 1000	92.9	300	
CNC(=O)c1ccccc1Nc1nc(Nc2ccc(N3CCN(C(=O)N[C@H]4CC[C@@H](N(CCC#Cc5ccc6c(c5)CN(C5CCC(=O)NC5=O)C6=O)C(=O)OC(C)C(C)SSC[C@@H](NC(=O)CC[C@@H](NC(=O)c5ccc(NCc6cnc7nc(N)[nH]c(=O)c7n6)cc5)C(=O)O)C(=O)N[C@H](Cc5ccccc5)C(=O)N[C@H]5CSSC[C@@H](C(=O)N[C@H](CO)[C@@H](C)O)NC(=O)[C@H]([C@@H](C)O)NC(=O)[C@H](CCCCN)NC(=O)[C@@H](Cc6c[nH]c7ccccc67)NC(=O)[C@H](Cc6ccccc6)NC5=O)CC4)CC3)cc2)ncc1Cl (some centres unmarked) [UB-181267]	519	> 1000	> 1000	168	> 1000	
NC(=O)c1ccccc1Nc1nc(Nc2ccc(N3CCN([C@H]4CC[C@@H](NCCC#Cc5ccc6c(c5)CN(C5CCC(=O)NC5=O)C6=O)CC4)CC3)cc2)ncc1Cl (some centres unmarked) [UB-181315]						EC50 [1, 10]: 723 nM; EC50 [2, 11]: > 1000 nM; EC50 (Human Colon Cancer HT-29; [12]): > 1000 nM; EC50 [3, 13]: 314 nM; EC50 [4, 14]: > 1000 nM
CNC(=O)c1ccccc1Nc1nc(Nc2ccc(N3CCN(C(=O)N[C@H]4CC[C@@H](N(CCC#Cc5ccc6c(c5)CN(C5CCC(=O)NC5=O)C6=O)C(=O)OCc5ccc(NC(=O)[C@H](CC(N)=O)NC(=O)[C@H](C)NC(=O)[C@H](C)NC(=O)COCCOCCOCCOC)cc5)CC4)CC3)cc2)ncc1Cl (some centres unmarked) [UB-181242]						EC50 [1, 10]: 75.2 nM; EC50 [2, 11]: > 1000 nM; EC50 (Human Colon Cancer HT-29; [12]): > 1000 nM; EC50 [3, 13]: 94.2 nM; EC50 [4, 14]: 226 nM
CNC(=O)c1ccccc1Nc1nc(Nc2ccc(N3CCN(C(=O)N[C@H]4CC[C@@H](N(CCC#Cc5ccc6c(c5)CN(C5CCC(=O)NC5=O)C6=O)C(=O)OC(C)C(C)SSC[C@H](NC(=O)CC[C@H](NC(=O)c5ccc(NCc6cnc7nc(N)[nH]c(=O)c7n6)cc5)C(=O)O)C(=O)N[C@H](Cc5ccccc5)C(=O)N[C@H]5CSSC[C@@H](C(=O)N[C@H](CO)[C@@H](C)O)NC(=O)[C@H]([C@@H](C)O)NC(=O)[C@H](CCCCN)NC(=O)[C@@H](Cc6c[nH]c7ccccc67)NC(=O)[C@H](Cc6ccccc6)NC5=O)CC4)CC3)cc2)ncc1Cl (some centres unmarked) [UB-181266]	234	> 1000	> 1000	152	> 1000	
CC[C@@H]1C(=O)N(C)c2cnc(Nc3ccc(-c4cn([C@H]5CC[C@@H](N(CCOCCC#Cc6cccc7c6CN(C6CCC(=O)NC6=O)C7=O)C(=O)OCCSSC[C@H](NC(=O)CC[C@H](NC(=O)c6ccc(NCc7cnc8nc(N)[nH]c(=O)c8n7)cc6)C(=O)O)C(=O)N[C@H](Cc6ccccc6)C(=O)N[C@H]6CSSC[C@@H](C(=O)N[C@H](CO)[C@@H](C)O)NC(=O)[C@H]([C@@H](C)O)NC(=O)[C@H](CCCCN)NC(=O)[C@@H](Cc7c[nH]c8ccccc78)NC(=O)[C@H](Cc7ccccc7)NC6=O)CC5)nn4)cc3OC)nc2N1C1CCCC1 (some centres unmarked) [UB-181339]	249	> 1000	> 1000	236	456	
C[C@@H](O)[C@@H]1NC(=O)[C@H](CCCCN)NC(=O)[C@@H](Cc2c[nH]c3ccccc23)NC(=O)[C@H](Cc2ccccc2)NC(=O)[C@@H](NC(=O)[C@@H](Cc2ccccc2)NC(=O)[C@@H](N)CSC2CC(=O)N(CCC(=O)N[C@@H](CC(=O)O)C(=O)N[C@@H](CCCNC(=N)N)C(=O)N[C@@H](CC(=O)O)C(=O)N[C@@H](CC(=O)O)C(=O)N[C@@H](CSSCCOC(=O)N(CCC#Cc3ccc4c(c3)CN(C3CCC(=O)NC3=O)C4=O)C3CCC(NC(=O)N4CCN(c5ccc(Nc6ncc(Cl)c(Nc7ccccc7C(N)=O)n6)cc5)CC4)CC3)C(=O)O)C2=O)CSSC[C@@H](C(=O)N[C@H](CO)[C@@H](C)O)NC1=O (some centres unmarked) [UB-181342] (I: H-C[dF]CF[dW]KTC[Thr(ol)] / II: DRDDC(X1)-OH; linker I:1-II:N via Succinimide(1-C2H4CO,3-yl); disulfide I:3-I:8)						EC50 ([1]; 72 h): 847 nM; EC50 ([2]; 72 h): > 1000 nM; EC50 (Human Colon Cancer HT-29; 72 h): > 1000 nM; EC50 ([3]; 72 h): 746 nM; EC50 ([4]; 72 h): > 1000 nM
